Laboratory results reported in patent US6737383B1, “Herbicidal oxadiazolidines” (priority 1999, dated 2004).

How the values were obtained:
corn = test: Test B pre/postemergence corn; type: in vivo, Zea mays
Summary of the method: (§1)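 Test chemicals in a non-phytotoxic solvent mixture with surfactant were sprayed preemergence onto planted seeds and postemergence onto plants 2 to 18 cm tall (1- to 4-leaf stage). After twelve to sixteen days in a greenhouse, injury was visually rated against untreated controls from 0 (no effect) to 10 (complete control).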

duck salad = test: Test B flood test duck salad; type: in vivo, Heteranthera limosa
Summary of the method: (§2)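 Each value is a visual injury score relative to controls, with 10 meaning complete control and 0 no effect. Evaluation took place twelve to sixteen days after the 2-leaf-stage plants were treated and kept in the greenhouse.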

giant foxtail = test: Test B pre/postemergence giant foxtail; type: in vivo, Setaria faberii
Summary of the method: as §1

wheat = test: Test B pre/postemergence wheat; type: in vivo, Triticum aestivum
Summary of the method: as §1

soybean = test: Test B pre/postemergence soybean; type: in vivo, Glycine max
Summary of the method: as §1

surinam grass = test: Test B pre/postemergence surinam grass; type: in vivo, Brachiaria decumbens
Summary of the method: as §1

purple nutsedge = test: Test B pre/postemergence purple nutsedge; type: in vivo, Cyperus rotundus
Summary of the method: as §1

cocklebur = test: Test B pre/postemergence cocklebur; type: in vivo, Xanthium strumarium
Summary of the method: as §1

velvetleaf = test: Test B pre/postemergence velvetleaf; type: in vivo, Abutilon theophrasti
Summary of the method: as §1

sugar beet = test: Test B pre/postemergence sugar beet; type: in vivo, Beta vulgaris
Summary of the method: as §1

rice = test: Test B flood test rice; type: in vivo, Oryza sativa
Summary of the method: as §2

wild oat = test: Test B pre/postemergence wild oat; type: in vivo, Avena fatua
Summary of the method: as §1

blackgrass = test: Test B pre/postemergence blackgrass; type: in vivo, Alopecurus myosuroides
Summary of the method: as §1

pigweed = test: Test B pre/postemergence pigweed; type: in vivo, Amaranthus retroflexus
Summary of the method: as §1

crabgrass = test: Test B pre/postemergence crabgrass; type: in vivo, Digitaria sanguinalis
Summary of the method: as §1

[1] = Postemergence, Rate 250 g/ha, scale 0 to 10
[2] = Postemergence, Rate 500 g/ha, scale of 0 to 10 where 0 is no effect and 10 is complete control
[3] = Preemergence, Rate 62 g/ha, scale 0 to 10 (0 no effect, 10 complete control)
[4] = Preemergence, Rate 125 g/ha, scale of 0 to 10 where 0 is no effect and 10 is complete control
[5] = Preemergence, Rate 250 g/ha, scale 0 to 10, 0 is no effect, 10 is complete control
[6] = Preemergence, Rate 500 g/ha, scale 0 to 10, 0 is no effect, 10 is complete control
[7] = Rate 62 g/ha, Postemergence, scale of 0 to 10 where 0 is no effect and 10 is complete control
[8] = Rate 125 g/ha, Postemergence, scale 0 to 10, 0 is no effect, 10 is complete control
[9] = Postemergence block (flood test species), Rate 250 g/ha, scale 0 to 10
[10] = Postemergence section (flood test species), Rate 500 g/ha, scale of 0 to 10 where 0 is no effect and 10 is complete control
[11] = Rate 125 g/ha, Postemergence section (flood test species), scale 0 to 10, 0 is no effect, 10 is complete control

CCN(C(=O)n1oc(=O)n(C2CCCCCC2)c1=O)C1CCCCC1 [Compound 429]
10: Plant response rating, Giant foxtail (giant foxtail; [4]) | Giant foxtail plant response rating (giant foxtail; [5]) | Giant foxtail plant response rating (giant foxtail; [6]) | Plant response rating, Crabgrass (crabgrass; [4]) | Crabgrass plant response rating (crabgrass; [5]) | Crabgrass plant response rating (crabgrass; [6])
1: Giant foxtail plant response rating (giant foxtail; [8]) | Crabgrass plant response rating (crabgrass; [8])
0: Corn plant response rating (corn; [1]) | Corn plant response rating (corn; [2]) | Plant response rating, Corn (corn; [3]) | Plant response rating, Corn (corn; [4]) | Corn plant response rating (corn; [5]) | Corn plant response rating (corn; [6]) | Corn plant response rating (corn; [7]) | Corn plant response rating (corn; [8]) | Ducksalad plant response rating (duck salad; Rate 62 g/ha, Postemergence (flood test species), scale of 0 to 10 where 0 is no effect and 10 is complete control) | Giant foxtail plant response rating (giant foxtail; [7]) | Wheat plant response rating (wheat; [1]) | Wheat plant response rating (wheat; [2]) | Plant response rating, Wheat (wheat; [3]) | Plant response rating, Wheat (wheat; [4]) | Wheat plant response rating (wheat; [5]) | Wheat plant response rating (wheat; [6]) | Wheat plant response rating (wheat; [8]) | Plant response rating, Soybean (soybean; [3]) | Plant response rating, Soybean (soybean; [4]) | Soybean plant response rating (soybean; [5]) | Soybean plant response rating (soybean; [6]) | B. signalgrass plant response rating (surinam grass; Postemergence, Rate 250 g/ha, scale 0 to 10, 0 no effect, 10 complete control) | B. signalgrass plant response rating (surinam grass; [2]) | Plant response rating, B. signalgrass (surinam grass; [3]) | Plant response rating, B. signalgrass (surinam grass; [4]) | B. signalgrass plant response rating (surinam grass; [5]) | B. signalgrass plant response rating (surinam grass; [7]) | B. signalgrass plant response rating (surinam grass; [8]) | Nutsedge plant response rating (purple nutsedge; [1]) | Nutsedge plant response rating (purple nutsedge; [2]) | Plant response rating, Nutsedge (purple nutsedge; [3]) | Plant response rating, Nutsedge (purple nutsedge; [4]) | Nutsedge plant response rating (purple nutsedge; [5]) | Nutsedge plant response rating (purple nutsedge; [6]) | Nutsedge plant response rating (purple nutsedge; [8]) | Cocklebur plant response rating (cocklebur; [1]) | Cocklebur plant response rating (cocklebur; [2]) | Plant response rating, Cocklebur (cocklebur; [3]) | Plant response rating, Cocklebur (cocklebur; [4]) | Cocklebur plant response rating (cocklebur; [5]) | Cocklebur plant response rating (cocklebur; [6]) | Cocklebur plant response rating (cocklebur; [7]) | Cocklebur plant response rating (cocklebur; [8]) | Plant response rating, Velvetleaf (velvetleaf; [3]) | Plant response rating, Velvetleaf (velvetleaf; [4]) | Velvetleaf plant response rating (velvetleaf; [5]) | Velvetleaf plant response rating (velvetleaf; [6]) | Velvetleaf plant response rating (velvetleaf; [8]) | Sugarbeets plant response rating (sugar beet; [1]) | Sugarbeets plant response rating (sugar beet; [2]) | Plant response rating, Sugarbeets (sugar beet; [3]) | Plant response rating, Sugarbeets (sugar beet; [4]) | Sugarbeets plant response rating (sugar beet; [5]) | Sugarbeets plant response rating (sugar beet; [6]) | Sugarbeets plant response rating (sugar beet; [8]) | Rice plant response rating (rice; [9]) | Rice plant response rating (rice; [10]) | Rice plant response rating (rice; [11]) | Wild oats plant response rating (wild oat; [1]) | Wild oats plant response rating (wild oat; [2]) | Plant response rating, Wild oats (wild oat; [3]) | Plant response rating, Wild oats (wild oat; [4]) | Wild oats plant response rating (wild oat; [5]) | Wild oats plant response rating (wild oat; [6]) | Wild oats plant response rating (wild oat; [8]) | Plant response rating, Blackgrass (blackgrass; [3]) | Plant response rating, Blackgrass (blackgrass; [4]) | Blackgrass plant response rating (blackgrass; [5]) | Blackgrass plant response rating (blackgrass; [7]) | Redroot pigweed plant response rating (pigweed; [1]) | Redroot pigweed plant response rating (pigweed; [2]) | Plant response rating, Redroot pigweed (pigweed; [3]) | Plant response rating, Redroot pigweed (pigweed; [4]) | Redroot pigweed plant response rating (pigweed; [5]) | Redroot pigweed plant response rating (pigweed; [6]) | Redroot pigweed plant response rating (pigweed; [8]) | Crabgrass plant response rating (crabgrass; [7])
7: Plant response rating, Crabgrass (crabgrass; [3])
4: Giant foxtail plant response rating (giant foxtail; [2]) | B. signalgrass plant response rating (surinam grass; [6])
6: Ducksalad plant response rating (duck salad; [9]) | Ducksalad plant response rating (duck salad; [10])
2: Ducksalad plant response rating (duck salad; [11]) | Giant foxtail plant response rating (giant foxtail; [1]) | Soybean plant response rating (soybean; [1]) | Soybean plant response rating (soybean; [8]) | Velvetleaf plant response rating (velvetleaf; [1]) | Velvetleaf plant response rating (velvetleaf; [2]) | Blackgrass plant response rating (blackgrass; [8]) | Crabgrass plant response rating (crabgrass; [1])
3: Plant response rating, Giant foxtail (giant foxtail; [3]) | Soybean plant response rating (soybean; [2]) | Blackgrass plant response rating (blackgrass; [1]) | Blackgrass plant response rating (blackgrass; [2]) | Blackgrass plant response rating (blackgrass; [6]) | Crabgrass plant response rating (crabgrass; [2])
